Measurements published in patent publication US10221139B2, “Inhibitors of histone demethylases” (Gilead Sciences, Inc., priority 2012, dated 2019).

Assays:
Format in all cases: biochemical
[1] = biological target: T1, UTX (KDM6A) (Homo sapiens, UniProt O15550); test: Histone lysine demethylase AlphaLISA assay, UTX; conditions: substrate BK27M3
T1 construct: 919-1401; host or cells: E. coli
Experimental: (§1) Example 2: Histone Lysine Demethylase AlphaLISA Assays for IC50 Value Determination
(§2) Assays are performed analogously to the protocol described by Perkin Elmer (Roy et al. Perkin Elmer Technical Note: AlphaLISA #12, April 2011).
(§3) Enzymes are dissolved in enzyme buffer and incubated for 10 min before 5 μL is added to 5 μL 3% DMSO solutions of compounds in enzyme buffer. Incubated for another 10 minutes, before 5 μL substrate solution is added and the reaction mixture is incubated at room temperature for the given period. 10 μL acceptor beads, suspended at given dilutions in Epigenetic Buffer (Perkin Elmer AL008) from stock, are added and the suspension is incubated 60 minutes in the dark at room temperature, before 10 μL suspension (at the given dilutions in Epigenetic Buffer) of streptavidin donor beads (Perkin Elmer 6760002) in Epigenetic Buffer is added. After incubation at room temperature in the dark the plates are read. Reaction conditions are seen in Table 2b.

[2] = biological target: T2, PLU1 (KDM5B) (Homo sapiens, UniProt Q9UGL1); test: Histone lysine demethylase AlphaLISA assay, PLU1; conditions: substrate H3K4M3B
T2 construct: 1-809; host or cells: E. coli
T2 sequence (Q9UGL1 1-809): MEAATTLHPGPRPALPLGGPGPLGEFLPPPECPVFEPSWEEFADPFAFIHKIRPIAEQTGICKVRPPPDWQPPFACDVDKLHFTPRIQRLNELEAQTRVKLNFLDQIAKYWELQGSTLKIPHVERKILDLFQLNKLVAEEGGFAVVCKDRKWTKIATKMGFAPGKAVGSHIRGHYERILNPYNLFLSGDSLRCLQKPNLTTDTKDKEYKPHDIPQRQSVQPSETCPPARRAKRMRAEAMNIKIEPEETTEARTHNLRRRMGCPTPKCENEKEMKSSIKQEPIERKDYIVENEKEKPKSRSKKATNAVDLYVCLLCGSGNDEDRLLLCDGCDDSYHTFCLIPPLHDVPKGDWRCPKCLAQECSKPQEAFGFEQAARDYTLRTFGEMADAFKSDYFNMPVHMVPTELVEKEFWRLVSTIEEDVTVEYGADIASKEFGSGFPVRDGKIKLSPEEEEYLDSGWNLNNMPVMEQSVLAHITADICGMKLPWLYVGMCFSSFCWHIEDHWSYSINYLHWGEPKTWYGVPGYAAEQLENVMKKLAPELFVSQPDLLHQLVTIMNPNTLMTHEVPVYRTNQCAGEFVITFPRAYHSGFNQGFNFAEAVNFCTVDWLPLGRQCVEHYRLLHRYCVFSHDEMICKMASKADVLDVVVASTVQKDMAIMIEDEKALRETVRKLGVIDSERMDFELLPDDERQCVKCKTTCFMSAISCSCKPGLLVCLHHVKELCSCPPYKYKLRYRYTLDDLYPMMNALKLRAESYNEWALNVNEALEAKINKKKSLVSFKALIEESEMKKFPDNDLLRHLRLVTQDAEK
Experimental: as §1, §2, §3

[3] = biological target: T3, GASC1 (KDM4C, JMJD2C) (Homo sapiens, UniProt Q9H3R0); test: Histone lysine demethylase AlphaLISA assay, GASC1; conditions: substrate BK9M3
T3 construct: 1-349; host or cells: E. coli
T3 sequence (Q9H3R0 1-349): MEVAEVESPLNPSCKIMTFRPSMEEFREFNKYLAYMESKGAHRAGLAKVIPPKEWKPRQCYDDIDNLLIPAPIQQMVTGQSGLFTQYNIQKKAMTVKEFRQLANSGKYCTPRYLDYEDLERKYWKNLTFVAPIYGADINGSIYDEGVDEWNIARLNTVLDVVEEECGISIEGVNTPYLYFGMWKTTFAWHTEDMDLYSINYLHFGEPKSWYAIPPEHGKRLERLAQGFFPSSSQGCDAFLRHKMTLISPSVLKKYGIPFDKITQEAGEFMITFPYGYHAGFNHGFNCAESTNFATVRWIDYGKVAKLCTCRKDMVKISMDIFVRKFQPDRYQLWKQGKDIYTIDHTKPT
Experimental: as §1, §2, §3

T1 sequence (O15550 919-1401): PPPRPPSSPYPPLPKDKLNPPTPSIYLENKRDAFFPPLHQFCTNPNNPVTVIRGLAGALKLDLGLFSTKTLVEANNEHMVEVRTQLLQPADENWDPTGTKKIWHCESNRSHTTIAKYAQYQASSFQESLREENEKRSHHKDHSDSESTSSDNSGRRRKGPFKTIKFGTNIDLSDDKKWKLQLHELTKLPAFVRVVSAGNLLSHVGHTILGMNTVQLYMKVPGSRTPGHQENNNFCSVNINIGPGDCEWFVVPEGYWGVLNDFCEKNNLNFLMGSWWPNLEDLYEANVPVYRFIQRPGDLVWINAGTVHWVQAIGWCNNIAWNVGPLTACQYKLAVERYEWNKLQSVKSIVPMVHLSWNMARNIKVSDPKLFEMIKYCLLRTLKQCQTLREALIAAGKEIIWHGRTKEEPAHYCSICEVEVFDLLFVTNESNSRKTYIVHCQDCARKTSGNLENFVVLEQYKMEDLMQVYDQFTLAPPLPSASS

**Q.** What does the source list for `O=C(O)c1ccnc(CNCCCN2CCC(Cc3ccccc3)CC2)c1` [#40, 2-({[3-(4-benzylpiperidin-1-yl)propyl]amino}methyl)pyridine-4-carboxylic acid]?
**A.** IC50 [1]: ≥ 1000 nM; IC50 [2]: < 100 nM; IC50 [3]: < 100 nM

**Q.** Which results are given for `CN(CCC(N)=O)C(=O)CNCc1cc(C(=O)O)ccn1` [#23, 2-[({[(2-carbamoylethyl)(methyl)carbamoyl]methyl}amino)methyl]pyridine-4-carboxylic acid]?
**A.** IC50 [1]: ≥ 1000 nM; IC50 [2]: < 100 nM; IC50 [3]: < 100 nM

**Q.** With `O=C(O)c1ccnc(CNCC(=O)N2CCCC2Cc2ccccc2)c1` (stereo not drawn) [#43, 2-({[2-(2-benzylpyrrolidin-1-yl)-2-oxoethyl]amino}methyl)pyridine-4-carboxylic acid] as the compound, how does the IC50 [1] read?
**A.** ≥ 1000 nM

**Q.** What about the IC50 [2] of the same compound?
**A.** < 100 nM

**Q.** What about the IC50 [3] of the same compound?
**A.** < 100 nM

**Q.** Which IC50 [1] does the source give for `CC(C)(C)OC(=O)N1CC[C@@H](NCc2cc(C(=O)O)ccn2)C1` [#19, 2-({[(3R)-1-[(tert-butoxy)carbonyl]pyrrolidin-3-yl]amino}methyl)pyridine-4-carboxylic acid] here?
**A.** ≥ 1000 nM

**Q.** What about the IC50 [2] of the same compound?
**A.** ≥ 1000 nM

**Q.** What about the IC50 [3] of the same compound?
**A.** ≥ 1000 nM

**Q.** Which IC50 [1] does the source give for `CCOC(=O)c1ccnc(CNCC(=O)N(CC)CCN(C)C)c1` [#65, ethyl 2-{[({[2-(dimethylamino)ethyl](ethyl)carbamoyl}methyl)amino]methyl}pyridine-4-carboxylate] here?
**A.** < 100 nM

**Q.** What about the IC50 [2] of the same compound?
**A.** 100 to 1000 nM

**Q.** And the IC50 [3]?
**A.** 100 to 1000 nM

**Q.** With `O=C(CNCc1cc(C(=O)O)ccn1)NC1CCN(Cc2ccc(-c3ccccc3)o2)CC1` [#32, 2-({[({1-[(5-phenylfuran-2-yl)methyl]piperidin-4-yl}carbamoyl)methyl]amino}methyl)pyridine-4-carboxylic acid] as the compound, how does the IC50 [1] read?
**A.** ≥ 1000 nM

**Q.** What about the IC50 [2] of the same compound?
**A.** < 100 nM

**Q.** And the IC50 [3]?
**A.** < 100 nM

**Q.** How did the IC50 [1] turn out when `CCN(CCN(C)C)C(=O)CNCc1cc(C(=O)Oc2ccc(OC)cc2)ccn1` [#58, 4-methoxyphenyl 2-{[({[2-(dimethylamino)ethyl](ethyl)carbamoyl}methyl)amino]methyl}pyridine-4-carboxylate] was run?
**A.** ≥ 1000 nM

**Q.** What about the IC50 [2] of the same compound?
**A.** < 100 nM

**Q.** What about the IC50 [3] of the same compound?
**A.** 100 to 1000 nM

**Q.** How did the IC50 [1] turn out when `C=CCN(CC=C)C(=O)CNCc1cc(C(=O)O)ccn1` [#17, 2-[({[bis(prop-2-en-1-yl)carbamoyl]methyl}amino)methyl]pyridine-4-carboxylic acid] was run?
**A.** ≥ 1000 nM

**Q.** What about the IC50 [2] of the same compound?
**A.** < 100 nM

**Q.** And the IC50 [3]?
**A.** < 100 nM

**Q.** With `CCN(CCN(C)C)C(=O)CNCc1cc(C(=O)OC(CCNC(=O)C(F)(F)F)CC(=O)OC(C)C)ccn1` (stereo not drawn) [#74, propan-2-yl 3-(2-{[({[2-(dimethylamino)ethyl](ethyl)carbamoyl}methyl)amino]methyl}pyridine-4-carbonyloxy)-5-(trifluoroacetamido)pentanoate] as the compound, how does the IC50 [2] read?
**A.** < 100 nM

**Q.** And the IC50 [3]?
**A.** 100 to 1000 nM

**Q.** For `CCN(CC)CCCCNCc1cc(C(=O)OCCCN(C)C)ccn1` [#54, 3-(dimethylamino)propyl 2-({[4-(diethylamino)butyl]amino}methyl)pyridine-4-carboxylate], which IC50 [1] is on record?
**A.** ≥ 1000 nM

**Q.** And the IC50 [2]?
**A.** < 100 nM

**Q.** What about the IC50 [3] of the same compound?
**A.** 100 to 1000 nM

**Q.** `O=C(O)c1ccnc(CNC[C@@H](O)CO)c1` [#3, 2-({[(2R)-2,3-dihydroxypropyl]amino}methyl)pyridine-4-carboxylic acid] was tested. Which IC50 [1] did it give?
**A.** ≥ 1000 nM

**Q.** And the IC50 [2]?
**A.** < 100 nM

**Q.** What about the IC50 [3] of the same compound?
**A.** 100 to 1000 nM

**Q.** Which results are given for `CCCCCCCCCCCCCCCC(=O)OCC(COC(=O)c1ccnc(CNCC(=O)N(CC)CCN(C)C)c1)OC(=O)CCCCCCCCCCCCCCC` (stereo not drawn) [#69, 1-(2-{[({[2-(dimethylamino)ethyl](ethyl)carbamoyl}methyl)amino]methyl}pyridine-4-carbonyloxy)-3-(hexadecanoyloxy)propan-2-yl hexadecanoate]?
**A.** IC50 [1]: < 100 nM; IC50 [2]: 100 to 1000 nM; IC50 [3]: 100 to 1000 nM

**Q.** Which IC50 [2] does the source give for `O=C(O)c1ccnc(CN2CCCCC2)c1` [#78, 2-(piperidin-1-ylmethyl)pyridine-4-carboxylic acid] here?
**A.** ≥ 1000 nM

**Q.** What about the IC50 [3] of the same compound?
**A.** ≥ 1000 nM

**Q.** With `CCN(CCN(C)C)C(=O)CNCc1cc(C(=O)Nc2nnc(C)o2)ccn1` [#76, 2-{[({[2-(dimethylamino)ethyl](ethyl)carbamoyl}methyl)amino]methyl}-N-(5-methyl-1,3,4-oxadiazol-2-yl)pyridine-4-carboxamide] as the compound, how does the IC50 [2] read?
**A.** < 100 nM

**Q.** And the IC50 [3]?
**A.** < 100 nM

**Q.** Which results are given for `CCN(CCN(C)C)C(=O)CNCc1cc(C(=O)Nc2ccnn2C)ccn1` [#77, 2-{[({[2-(dimethylamino)ethyl](ethyl)carbamoyl}methyl)amino]methyl}-N-(1-methyl-1H-pyrazol-5-yl)pyridine-4-carboxamide]?
**A.** IC50 [2]: < 100 nM; IC50 [3]: < 100 nM

**Q.** Which results are given for `CCN(CCN(C)C)C(=O)CNCc1cc(C(=O)OC(CNC(=O)C(F)(F)F)CC(=O)OC(C)C)ccn1` (stereo not drawn) [#73, propan-2-yl 3-(2-{[({[2-(dimethylamino)ethyl](ethyl)carbamoyl}methyl)amino]methyl}pyridine-4-carbonyloxy)-4-(trifluoroacetamido)butanoate]?
**A.** IC50 [2]: 100 to 1000 nM; IC50 [3]: 100 to 1000 nM

**Q.** Which IC50 [1] does the source give for `O=C(O)c1ccnc(CNCc2ccco2)c1` [#9, 2-{[(furan-2-ylmethyl)amino]methyl}pyridine-4-carboxylic acid] here?
**A.** ≥ 1000 nM

**Q.** And the IC50 [3]?
**A.** < 100 nM

**Q.** Which IC50 [2] does the source give for `CCN(CCN(C)C)C(=O)CNCc1cc(C(=O)Nc2ncco2)ccn1` [#84, 2-{[({[2-(dimethylamino)ethyl](ethyl)carbamoyl}methyl)amino]methyl}-N-(1,3-oxazol-2-yl)pyridine-4-carboxamide] here?
**A.** < 100 nM

**Q.** What about the IC50 [3] of the same compound?
**A.** < 100 nM

**Q.** What does the source list for `CCN(CCN(C)C)C(=O)CNCc1cc(C(=O)Oc2ccc(C(C)(C)C)cc2)ccn1` [#61, 4-tert-butylphenyl 2-{[({[2-(dimethylamino)ethyl](ethyl)carbamoyl}methyl)amino]methyl}pyridine-4-carboxylate]?
**A.** IC50 [2]: < 100 nM; IC50 [3]: < 100 nM

**Q.** How did the IC50 [1] turn out when `CN(C)CCN(C)Cc1cc(C(=O)O)ccn1` [#6, 2-({[2-(dimethylamino)ethyl](methyl)amino}methyl)pyridine-4-carboxylic acid] was run?
**A.** ≥ 1000 nM

**Q.** What about the IC50 [2] of the same compound?
**A.** 100 to 1000 nM

**Q.** Which IC50 [2] does the source give for `CCN(CCN(C)C)C(=O)CNCc1cc(C(=O)Oc2c(OC(C)C)cccc2OC(C)C)ccn1` [#85, 2,6-bis(propan-2-yloxy)phenyl 2-{[({[2-(dimethylamino)ethyl](ethyl)carbamoyl}methyl)amino]methyl}pyridine-4-carboxylate] here?
**A.** 100 to 1000 nM

**Q.** What about the IC50 [3] of the same compound?
**A.** 100 to 1000 nM

**Q.** With `COC(=O)c1ccnc(CNCCCN2CCCC2)c1` [#47, methyl 2-({[3-(pyrrolidin-1-yl)propyl]amino}methyl)pyridine-4-carboxylate] as the compound, how does the IC50 [2] read?
**A.** 100 to 1000 nM

**Q.** What about the IC50 [3] of the same compound?
**A.** ≥ 1000 nM

**Q.** With `CCN(CCN(C)C)C(=O)CNCc1cc(C(=O)OC(C)CC(C)=O)ccn1` (stereo not drawn) [#62, 4-oxopentan-2-yl 2-{[({[2-(dimethylamino)ethyl](ethyl)carbamoyl}methyl)amino]methyl}pyridine-4-carboxylate] as the compound, how does the IC50 [2] read?
**A.** < 100 nM

**Q.** What about the IC50 [3] of the same compound?
**A.** < 100 nM

**Q.** With `CCN(CCN(C)C)C(=O)CNCc1cc(C(=O)Nc2ccncc2)ccn1` [#75, 2-{[({[2-(dimethylamino)ethyl](ethyl)carbamoyl}methyl)amino]methyl}-N-(pyridin-4-yl)pyridine-4-carboxamide] as the compound, how does the IC50 [2] read?
**A.** < 100 nM

**Q.** What about the IC50 [3] of the same compound?
**A.** 100 to 1000 nM

**Q.** What does the source list for `CC(C)C[C@@H](C(=O)N1CCCCC1)N(C)Cc1cc(C(=O)O)ccn1` [#93, 2-({methyl[(2S)-4-methyl-1-oxo-1-(piperidin-1-yl)pentan-2-yl]amino}methyl)pyridine-4-carboxylic acid]?
**A.** IC50 [2]: ≥ 1000 nM; IC50 [3]: ≥ 1000 nM

**Q.** What does the source list for `CCN(CCN(C)C)C(=O)CNCc1cc(C(=O)OC(C)CCNC(=O)C(F)(F)F)ccn1` (stereo not drawn) [#63, 4-(trifluoroacetamido)butan-2-yl 2-{[({[2-(dimethylamino)ethyl](ethyl)carbamoyl}methyl)amino]methyl}pyridine-4-carboxylate]?
**A.** IC50 [2]: 100 to 1000 nM; IC50 [3]: 100 to 1000 nM
